One assay has as its target T1, APOL1 G1 (Homo sapiens, UniProt O14791, I384M/S342G).
T1 sequence (O14791 28-398 S342G/I384M): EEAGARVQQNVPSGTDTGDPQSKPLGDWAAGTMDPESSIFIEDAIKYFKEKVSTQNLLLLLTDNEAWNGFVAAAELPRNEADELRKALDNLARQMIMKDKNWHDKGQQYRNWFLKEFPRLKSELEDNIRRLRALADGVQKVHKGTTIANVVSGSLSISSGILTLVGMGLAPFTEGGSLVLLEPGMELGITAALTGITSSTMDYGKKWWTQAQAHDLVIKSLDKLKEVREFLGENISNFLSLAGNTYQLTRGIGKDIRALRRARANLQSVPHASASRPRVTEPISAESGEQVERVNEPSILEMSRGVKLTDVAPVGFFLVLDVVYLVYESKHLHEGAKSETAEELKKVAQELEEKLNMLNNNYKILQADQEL
The assay can be described thus: Trypanosoma brucei brucei Lysis Assay Using APOL1 Recombinant Protein (AlamarBlue viability readout). In kind it is cell-based. The settings on record: Trypanosome Assay; for IC50: IP50 = IC50 for cell proliferation, read-out: Trypanosome Assay IP50; for Emax: read-out: Trypanosome Assay Max Activity (%). The gist of the method: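 Percent viability comes from AlamarBlue (resazurin→resorufin) fluorescence interpolated on a standard curve of known parasite numbers, with no-APOL1 wells as 100%. Parasites (Lister 427 bloodstream form, 120,000/well, serum-free assay medium) meet 0.05 μg/mL APOL1 (~EC90). Compounds span a 10-point series, 0.1% DMSO final.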
For orientation: Alamar Blue is a resazurin reagent that responds to reducing activity.

The target of the next assay is T2, APOL1 (Homo sapiens, UniProt O14791).
T2 sequence (O14791 1-398 S342G/I384M): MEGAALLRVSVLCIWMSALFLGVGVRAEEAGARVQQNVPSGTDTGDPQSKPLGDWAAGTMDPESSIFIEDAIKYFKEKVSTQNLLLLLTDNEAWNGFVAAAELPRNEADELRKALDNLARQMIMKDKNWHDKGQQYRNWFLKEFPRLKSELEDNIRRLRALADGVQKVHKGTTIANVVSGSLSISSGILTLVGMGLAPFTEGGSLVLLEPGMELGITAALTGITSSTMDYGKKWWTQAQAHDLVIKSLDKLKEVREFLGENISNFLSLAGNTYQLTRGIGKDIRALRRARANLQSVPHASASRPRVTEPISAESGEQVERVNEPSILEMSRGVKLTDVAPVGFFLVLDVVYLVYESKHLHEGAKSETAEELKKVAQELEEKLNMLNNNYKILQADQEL
As to the kind of experiment: Multi-Tox Assay (MultiTox-Fluor Multiplex Cytotoxicity Assay in tet-inducible APOL1 T-REx-HEK293 cells; Table 46 does not say which APOL1 variant G0/G1/G2). As to conditions: APOL1 variant not given; for IC50: IP50 = IC50 for cell proliferation. In kind it is cell-based.

Where only a bound is given, the exact number is not on record here.

Regarding `CC1CC2(CC(c3ccc4c(c3)OCC(=O)N4)N1)OCCc1cc(Cl)sc12` (stereo not shown) [Compound 39], on APOL1 G1, the IC50 is less than 50 nM and the Emax was determined as 116%. The IC50 on APOL1 is less than 50 nM.

Regarding `CC1CC2(CC(c3cnn(-c4cccnc4)c3)N1)OCCc1cc(Cl)sc12` (stereo not shown) [Compound 40], at APOL1 G1, the IC50 is less than 50 nM and the Emax is 118%. Besides, at APOL1, the “Multi-Tox Assay Max Activity (%)” value was 100.0% and the IC50 was less than 50 nM.

For the compound `CNC(=O)c1ccc(C2CC3(CC(C)N2)OCCc2cc(Cl)sc23)cc1` (stereo not shown) [Compound 41], at APOL1 G1, the IC50 was less than 50 nM and the Emax came out at 112%. On APOL1, this compound gave an IC50 of less than 50 nM.

As to `Cc1nn(C)c2ncc(C3CC4(CC(C)N3)OCCc3cc(Cl)sc34)cc12` (stereo not shown) [Compound 42], at APOL1 G1, the IC50 is less than 50 nM and the Emax was 110%. Also, the IC50 against APOL1 was less than 50 nM.

`Cc1cc(C2CC3(CC(C)N2)OCCc2cc(Cl)sc23)ncn1` (stereo not shown) [Compound 43]: at APOL1 G1, the IC50 was less than 50 nM and the Emax was found to be 103%. Further, on APOL1, the “Multi-Tox Assay Max Activity (%)” value is listed as 100.0% and the IC50 is less than 50 nM.

As for `CC1CC2(CC(c3cncnc3)N1)OCCc1cc(Cl)sc12` (stereo not shown) [Compound 45], on APOL1 G1, the IC50 is less than 50 nM and the Emax is 103%. Further, at APOL1, the “Multi-Tox Assay Max Activity (%)” value amounted to 100.0% and the IC50 is less than 50 nM.

In the case of `CC1CC2(CC(c3cnn(CCS(C)(=O)=O)c3)N1)OCCc1cc(Cl)sc12` (stereo not shown) [Compound 46], at APOL1 G1, the IC50 is less than 50 nM and the Emax came out at 108%. For the same compound, on APOL1, the “Multi-Tox Assay Max Activity (%)” value is 99.0% and the IC50 is less than 50 nM.

As to `CC1CC2(CC(c3cn(CC4CC4)nn3)N1)OCCc1cc(Cl)sc12` (stereo not shown) [Compound 122], on APOL1 G1, the IC50 fell in the range of 50 to 500 nM and the Emax came to 106%. The IC50 against APOL1 is less than 50 nM.

For `C[C@H]1C[C@@]2(C[C@@H](c3cn(C)nn3)N1)OC[C@@H](O)c1cc(Cl)sc12` [Compound 174, (2′S,4S,6′S,7S)-2-chloro-2′-methyl-6′-(1-methyltriazol-4-yl)spiro[4,5-dihydrothieno[2,3-c]pyran-7,4′-piperidine]-4-ol], on APOL1 G1, the IC50 is less than 50 nM and the Emax worked out at 104%. This compound came in with an IC50 against APOL1 of less than 50 nM.

For `C[C@H]1C[C@@]2(C[C@@H](c3cn(C)nn3)N1)OC[C@H](O)c1cc(C(F)(F)F)sc12` [Compound 180], the IC50 on APOL1 G1 and against APOL1 was less than 50 nM throughout. Also, the Emax at APOL1 G1 came to 102%.

Regarding `C[C@H]1C[C@@]2(C[C@@H](c3cn(C)nn3)N1)OC[C@@H](O)c1cc(C(F)(F)F)sc12` [Compound 181, (2S,4S,4′S,6S)-2-methyl-6-(1-methyl-1H-1,2,3-triazol-4-yl)-2′-(trifluoromethyl)-4′,5′-dihydrospiro[piperidine-4,7′-thieno[2,3-c]pyran]-4′-ol], the IC50 on APOL1 G1 and at APOL1 was less than 50 nM each time. Further, the Emax on APOL1 G1 was 102%.

Turning to `C[C@H]1C[C@@]2(C[C@@H](c3cn(C)nn3)N1)OC[C@@H](O)c1sc(Cl)cc12` [Compound 182], on APOL1 G1, the IC50 is less than 50 nM and the Emax amounted to 113%. Besides, the IC50 at APOL1 was less than 50 nM.

As for `C[C@H]1C[C@@]2(C[C@@H](c3cn(C)nn3)N1)OCC(F)(F)c1cc(Cl)sc12` [Compound 183, (2′S,6′S,7S)-2-chloro-4,4-difluoro-2′-methyl-6′-(1-methyltriazol-4-yl)spiro[5H-thieno[2,3-c]pyran-7,4′-piperidine]], on APOL1 G1, the IC50 lay within 50 to 500 nM and the Emax is 106%. Further, the IC50 against APOL1 is less than 50 nM.

For orientation: IC90 means the concentration needed for an effect of 90%. A lower IC90 goes with greater potency. For the compound `CCC1CC2(CC(c3cn(C)nn3)N1)OCCc1cc(Cl)sc12` (stereo not shown) [Compound 186, 2-chloro-2′-ethyl-6′-(1-methyltriazol-4-yl)spiro[4,5-dihydrothieno[2,3-c]pyran-7,4′-piperidine]], at APOL1 G1, the IC50 lay within 50 to 500 nM and the Emax was found to be 104%. Also, on APOL1, the concentration for an effect of 90% (IC90) is 50 to 500 nM, the “Multi-Tox Assay Max Activity (%)” value worked out at 99.3% and the IC50 was less than 50 nM.

In the case of `CCC1CC2(CC(c3cn(C)nn3)N1)OCCc1cc(C(F)(F)F)sc12` (stereo not shown) [Compound 187, 2′-ethyl-6′-(1-methyltriazol-4-yl)-2-(trifluoromethyl)spiro[4,5-dihydrothieno[2,3-c]pyran-7,4′-piperidine]], at APOL1 G1, the IC50 lay in the range of 50 to 500 nM and the Emax was 106%. On APOL1, the IC90 was less than 50 nM, the “Multi-Tox Assay Max Activity (%)” value worked out at 100.0% and the IC50 is less than 50 nM.

In the case of `CC(C)C1CC2(CC(c3cn(C)nn3)N1)OCCc1cc(Cl)sc12` (stereo not shown) [Compound 188], on APOL1 G1, the IC50 fell in the range of 50 to 500 nM and the Emax came out at 108%. Also, on APOL1, the 90% effect concentration (IC90) fell in the range of 50 to 500 nM, the “Multi-Tox Assay Max Activity (%)” value stood at 99.0% and the IC50 was in the range of 50 to 500 nM.

On to `Cn1cc(C2CC3(CC(C4CCC4)N2)OCCc2cc(Cl)sc23)nn1` (stereo not shown) [Compound 189], for which, at APOL1 G1, the IC50 is more than 500 nM and the Emax came to 87.5%. This compound yielded an IC50 on APOL1 of 50 to 500 nM.

Consider `COCC1CC2(CC(c3cn(C)nn3)N1)OCCc1cc(Cl)sc12` (stereo not shown) [Compound 190], for which the IC50 at APOL1 G1 was more than 500 nM; on APOL1, 50 to 500 nM. Further, the Emax on APOL1 G1 was found to be 92.5%.

In the case of `CC(C)C1CC2(CC(c3cn(C)nn3)N1)OCCc1cc(C(F)(F)F)sc12` (stereo not shown) [Compound 191], the IC50 on APOL1 G1 and against APOL1 was 50 to 500 nM throughout. For the same compound, the Emax at APOL1 G1 turned out to be 108%.

Regarding `Cn1cc(C2CC3(CC(C4CCC4)N2)OCCc2cc(C(F)(F)F)sc23)nn1` (stereo not shown) [Compound 192], the IC50 on APOL1 G1 and against APOL1 was 50 to 500 nM throughout. Besides, the Emax at APOL1 G1 amounted to 100%.

Regarding `COCC1CC2(CC(c3cn(C)nn3)N1)OCCc1cc(C(F)(F)F)sc12` (stereo not shown) [Compound 193], at APOL1 G1, the IC50 was 50 to 500 nM and the Emax was determined as 100%. The same compound yielded an IC50 against APOL1 of 50 to 500 nM.

Turning to `C[C@H]1CC2(C[C@H](C)N1)OCCc1sc(C(F)(F)F)cc12` (stereo partly shown) [Compound 195], on APOL1 G1, the IC50 is more than 500 nM and the Emax was 50.7%. Moreover, the IC50 against APOL1 was more than 500 nM.

`COC(=O)[C@@H]1C[C@]2(C[C@H](C)N1)OCCc1cc(Cl)sc12` [Compound 209, methyl (2′S,6′S,7S)-2-chloro-6′-methyl-spiro[4,5-dihydrothieno[2,3-c]pyran-7,4′-piperidine]-2′-carboxylate]: on APOL1 G1, the IC50 was 50 to 500 nM and the Emax came to 100%. In addition, the IC50 at APOL1 was more than 500 nM.

Turning to `C[C@H]1C[C@@]2(C[C@@H](CC3CCOCC3)N1)OCCc1cc(Cl)sc12` [Compound 219, (2S,6R)-2-chloro-2′-methyl-6′-(tetrahydropyran-4-ylmethyl)spiro[4,5-dihydrothieno[2,3-c]pyran-7,4′-piperidine]], at APOL1 G1, the IC50 was more than 500 nM and the Emax was 71%. In addition, the IC50 against APOL1 is more than 500 nM.

Regarding `C[C@H]1C[C@@]2(C[C@@H](C3CC3)N1)OCC(O)c1cc(Cl)sc12` (stereo partly drawn) [Compound 220, (2S,6S)-2-chloro-2′-cyclopropyl-6′-methyl-spiro[4,5-dihydrothieno[2,3-c]pyran-7,4′-piperidine]-4-ol], on APOL1 G1, the IC50 was less than 50 nM and the Emax is 110%. At APOL1, the IC50 is less than 50 nM.

(Values after US12421249B2, “Inhibitors of APOL1 and methods of using same” (Vertex Pharmaceuticals Incorporated, priority 2020, dated 2025).)
